In the supplement of paper PMC10307832:

Legend:
Assay in all cases: relative viability (nuclei count vs DMSO), 5 days (fraction); higher = more cells survive
PC-14 = test system: PC-14
In short: (§1)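 One day after seeding in 1536-well plates, lung cancer cell lines were dosed by pin tool. Dosing was either single-drug or a fixed anchor-drug dose plus five library-drug doses (not always all listed) in √10 steps. After 5 days, nuclei were stained in one fix-and-stain step and counted on 4× images, and relative viability is the nuclei count of treated wells over that of vehicle wells, given as the median of duplicate plates.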

NCI-H2085 = test system: NCI-H2085
In short: as §1

NCI-H322M = test system: NCI-H322M
In short: as §1

NCI-H647 = test system: NCI-H647
In short: as §1

NCI-H2087 = test system: NCI-H2087
In short: as §1

NCI-H1944 = test system: NCI-H1944
In short: as §1

LOU-NH91 = test system: LOU-NH91
In short: as §1

NCI-H1648 = test system: NCI-H1648
In short: as §1

ABC-1 = test system: ABC-1
In short: as §1

201T = test system: 201T
In short: as §1

HCC-44 = test system: HCC-44
In short: as §1

NCI-H2170 = test system: NCI-H2170
In short: as §1

PC-3 [JPC-3] = test system: PC-3 [JPC-3]
In short: as §1

NCI-H2023 = test system: NCI-H2023
In short: as §1

NCI-H1437 = test system: NCI-H1437
In short: as §1

NCI-H1734 = test system: NCI-H1734
In short: as §1

LK-2 = test system: LK-2
In short: as §1

HCC-78 = test system: HCC-78
In short: as §1

NCI-H2228 = test system: NCI-H2228
In short: as §1

SK-LU-1 = test system: SK-LU-1
In short: as §1

NCI-H1651 = test system: NCI-H1651
In short: as §1

HCC-366 = test system: HCC-366
In short: as §1

## Nc1cccc2c1CN(C1CCC(=O)NC1=O)C2=O (stereo not given) [Lenalidomide] + CC(=O)c1c(C)c2cnc(Nc3ccc(N4CCNCC4)cn3)nc2n(C2CCCC2)c1=O [Palbociclib] (partner 0.5 µM)
PC-14; first compound 0.253 µM
  relative viability: 0.541
PC-14; first compound 0.8 µM
  relative viability: 0.533
PC-14; first compound 2.53 µM
  relative viability: 0.6
PC-14; first compound 8 µM
  relative viability: 0.685
NCI-H2085; first compound 0.253 µM
  relative viability: 0.48
NCI-H2085; first compound 0.8 µM
  relative viability: 0.496
NCI-H2085; first compound 2.53 µM
  relative viability: 0.432
NCI-H2085; first compound 8 µM
  relative viability: 0.464
NCI-H322M; first compound 0.253 µM
  relative viability: 0.53
NCI-H322M; first compound 0.8 µM
  relative viability: 0.521
NCI-H322M; first compound 2.53 µM
  relative viability: 0.473
NCI-H322M; first compound 8 µM
  relative viability: 0.488
NCI-H647; first compound 0.253 µM
  relative viability: 0.467
NCI-H647; first compound 0.8 µM
  relative viability: 0.36
NCI-H647; first compound 2.53 µM
  relative viability: 0.402
NCI-H647; first compound 8 µM
  relative viability: 0.287
NCI-H2087; first compound 0.253 µM
  relative viability: 0.248
NCI-H2087; first compound 2.53 µM
  relative viability: 0.192
NCI-H2087; first compound 8 µM
  relative viability: 0.196
NCI-H1944; first compound 0.253 µM
  relative viability: 0.364
NCI-H1944; first compound 2.53 µM
  relative viability: 0.342
NCI-H1944; first compound 8 µM
  relative viability: 0.27
LOU-NH91; first compound 0.253 µM
  relative viability: 0.564
LOU-NH91; first compound 0.8 µM
  relative viability: 0.515
LOU-NH91; first compound 2.53 µM
  relative viability: 0.487
LOU-NH91; first compound 8 µM
  relative viability: 0.429
NCI-H1648; first compound 0.253 µM
  relative viability: 0.304
NCI-H1648; first compound 2.53 µM
  relative viability: 0.282
NCI-H1648; first compound 8 µM
  relative viability: 0.253
ABC-1; first compound 0.253 µM
  relative viability: 0.577
ABC-1; first compound 0.8 µM
  relative viability: 0.518
ABC-1; first compound 2.53 µM
  relative viability: 0.904
ABC-1; first compound 8 µM
  relative viability: 0.671
201T; first compound 0.253 µM
  relative viability: 0.394
201T; first compound 0.8 µM
  relative viability: 0.359
201T; first compound 2.53 µM
  relative viability: 0.38
201T; first compound 8 µM
  relative viability: 0.351
HCC-44; first compound 0.253 µM
  relative viability: 0.965
HCC-44; first compound 0.8 µM
  relative viability: 0.785
HCC-44; first compound 2.53 µM
  relative viability: 0.972
HCC-44; first compound 8 µM
  relative viability: 0.907
NCI-H2170; first compound 0.253 µM
  relative viability: 0.436
NCI-H2170; first compound 0.8 µM
  relative viability: 0.374
NCI-H2170; first compound 2.53 µM
  relative viability: 0.433
NCI-H2170; first compound 8 µM
  relative viability: 0.314
PC-3 [JPC-3]; first compound 0.253 µM
  relative viability: 0.545
PC-3 [JPC-3]; first compound 0.8 µM
  relative viability: 0.511
PC-3 [JPC-3]; first compound 2.53 µM
  relative viability: 0.548
PC-3 [JPC-3]; first compound 8 µM
  relative viability: 0.57
NCI-H2023; first compound 0.253 µM
  relative viability: 0.405
NCI-H2023; first compound 0.8 µM
  relative viability: 0.419
NCI-H2023; first compound 2.53 µM
  relative viability: 0.403
NCI-H2023; first compound 8 µM
  relative viability: 0.45
NCI-H1437; first compound 0.253 µM
  relative viability: 0.331
NCI-H1437; first compound 0.8 µM
  relative viability: 0.246
NCI-H1437; first compound 2.53 µM
  relative viability: 0.359
NCI-H1437; first compound 8 µM
  relative viability: 0.353
NCI-H1734; first compound 0.253 µM
  relative viability: 0.348
NCI-H1734; first compound 0.8 µM
  relative viability: 0.392
NCI-H1734; first compound 2.53 µM
  relative viability: 0.364
NCI-H1734; first compound 8 µM
  relative viability: 0.291
LK-2; first compound 0.253 µM
  relative viability: 0.575
LK-2; first compound 0.8 µM
  relative viability: 0.734
LK-2; first compound 2.53 µM
  relative viability: 0.845
LK-2; first compound 8 µM
  relative viability: 0.649
HCC-78; first compound 0.253 µM
  relative viability: 0.48
HCC-78; first compound 0.8 µM
  relative viability: 0.416
HCC-78; first compound 2.53 µM
  relative viability: 0.463
HCC-78; first compound 8 µM
  relative viability: 0.47
NCI-H2228; first compound 0.253 µM
  relative viability: 1.05
NCI-H2228; first compound 0.8 µM
  relative viability: 0.36
NCI-H2228; first compound 2.53 µM
  relative viability: 1.04
NCI-H2228; first compound 8 µM
  relative viability: 0.657
SK-LU-1; first compound 0.253 µM
  relative viability: 0.366
SK-LU-1; first compound 0.8 µM
  relative viability: 0.342
SK-LU-1; first compound 2.53 µM
  relative viability: 0.413
SK-LU-1; first compound 8 µM
  relative viability: 0.354
NCI-H1651; first compound 0.253 µM
  relative viability: 0.504
NCI-H1651; first compound 0.8 µM
  relative viability: 0.485
NCI-H1651; first compound 2.53 µM
  relative viability: 0.526
NCI-H1651; first compound 8 µM
  relative viability: 0.489
HCC-366; first compound 0.253 µM
  relative viability: 0.437
HCC-366; first compound 0.8 µM
  relative viability: 0.389
HCC-366; first compound 2.53 µM
  relative viability: 0.505
HCC-366; first compound 8 µM
  relative viability: 0.353
